Laboratory results reported in patent publication US7655677B2, “Composition and method for controlling house insect pest” (priority 2002, dated 2010).

Tests used:
Type in all cases: in vivo
[1] = tested on: Coptotermes formosanus; assay: Test Example 13: Japanese red pine poison bait, termite mortality and abnormal ratio with time
From the text: A wood block of Japanese red pine (2 cm×2 cm×0.5 cm) subjected to boiling treatment in hot water, was immersed in a methanol solution of a sample compound, and then, it was dried to obtain a Japanese red pine poison bait chemical containing the sample compound in a predetermined concentration. This poison bait chemical was put into a cylindrical cup made of acrylic resin (i.e. a cup having a hole with a diameter of 10 mm formed in the bottom and having hard plaster (Dental Stone) set at the bottom in the thickness of 10 mm), and 15 termite workers (Coptotermes formosanus) were released thereon. The cup was placed in a container having wet cotton laid over the bottom, and the container was maintained at room temperature of 25° C., whereby the number of dead termites and abnormal termites in the cup was examined as the time passed, and the mortality was calculated.

[2] = tested on: Coptotermes formosanus; assay: Test Example 19: gel coated on Japanese red pine wood block, termite mortality with time
From the text: A gel prepared by uniformity mixing 0.2 part by weight of […], 20 parts by weight of sorbitol, 3.5 parts by weight of cross-linked product of a starch/sodium acrylate copolymer, a predetermined amount of a sample compound and a predetermined amount of water, was coated in an amount of 110 g/m^2 on a dried rectangular parallelpiped wood block of Japanese red pine of 20 mm (L)×10 mm (R)×10 mm (T). This test specimen was put into a cylindrical cup made of acrylic resin (i.e. a cup having a hole with a diameter of 10 mm in the bottom and having hard plaster (Dental Stone) set at the bottom in a thickness of 10 mm), and 20 termite workers (Coptotermes formosanus) were released thereon. The cup was placed in a container having wet cotton laid over the bottom, and the container was maintained at room temperature of 25° C., whereby the number of dead termites in the cup was examined as the time passed, and the mortality was calculated.

[3] = tested on: Reticulitermes speratus; assay: Test Example 21: treated sandy soil with weather resistance operation, termite mortality; details: 1000 ppm
Procedure: Sandy soil passed through a sieve of 20 mesh was dried at a temperature of 60° C. to a constant weight, and 12 g of the soil thus obtained, was packed into a cup having a diameter of 60 mm. 3 ml of a pesticide solution adjusted to a predetermined concentration, was added and sufficiently mixed, whereupon it was maintained in a constant temperature chamber of 40° C. for 95 days to carry out the weather resistance operation. After the weather resistance operation, 10 termite workers (Reticulitermes speratus) were released on this test soil. The cup was placed in a container having wet cotton laid over the bottom, and the container was maintained at room temperature of 25° C. 2 Days later and 6 days later after releasing the termites, the number of dead termites in the cup was examined, and the mortality was calculated.

[4] = tested on: Coptotermes formosanus; assay: Test Example 17: dust placed in ant trail, termite mortality with time; details: 0.5% dust, 10 mg in ant trail
Procedure: Soil was packed in a cylindrical connection section made of an acrylic resin connecting two cups made of acrylic resin (i.e. cups each having a hole with a diameter of 10 mm formed in the bottom and having hard plaster (Dental Stone) set at the bottom in a thickness of 10 mm), and 30 termite workers and 3 termite soldiers (Coptotermes formosanus) were released to let them form an ant trail. Then, at the center portion of the ant trail, 10 mg of a dust prepared by mixing in a mortar 0.5 part by weight of a sample compound and 99.5 parts by weight of cellulose powder, was placed. This test apparatus was put into a container having wet cotton laid over the bottom and kept at room temperature of 25° C., whereby the number of dead termites in the cup was examined as the time passed, and the mortality was calculated. Further, for the purpose of comparison, a similar test was carried out with respect to a dust containing 0.5% of fipronil (Terminal Dust, tradename, manufactured by Aventis Crop Science Shionogi K.K.).

[5] = tested on: Reticulitermes speratus; assay: Test Example 3: treated filter paper in Petri dish, termite mortality after 37 days
Procedure: Mortality (%)=(Number of dead termite workers/15 termite workers)×100
Further, by the Colby's formula, the theoretical value (%) of mortality can be calculated. In a case where the actual mortality (%) is higher than the theoretical value (%), it can be said that the composition of the present invention has a synergistic effect for controlling the house insect pest.
A filter paper having a diameter of 80 mm was placed in a plastic Petri dish, and 1 ml of a pesticide solution having a predetermined concentration, was dropped thereon. After the treatment, the solvent was sufficiently evaporated, and then, 1 ml of distilled water was impregnated to the treated filter paper, whereupon 10 termite workers (Reticulitermes speratus) were released. The plastic Petri dish was placed in a container having wet cotton laid over the bottom, and the container was maintained at 25° C. for 37 days, whereupon the number of dead termites in the Petri dish was examined, and the mortality was calculated in the same manner as in Test Example 1.

[6] = weather resistance operation Negative, 2 Days later
[7] = weather resistance operation Positive (40° C. for 95 days), 2 Days later

CC(=NN=C(Cc1ccc(C(F)(F)F)cc1)c1ccc(F)cc1)N(C)C [Compound No. II-2, [4′-fluoro-2-(4-trifluoromethylphenyl)acetophenone]N′-[1-(dimethylamino)ethylidene]hydrazone]
Mortality ([1]; bait 0.005%, 4 Days later): 0%
Mortality ([1]; bait 0.005%, 8 Days later): 0%
Mortality ([1]; bait 0.005%, 10 Days later): 0%
Mortality ([1]; bait 0.005%, 14 Days later): 30%
Mortality ([1]; bait 0.005%, 17 Days later): 30 (30) %
abnormal ratio ([1]; bait 0.005%, 17 Days later): 30 (30) %
Mortality ([1]; bait 0.005%, 23 Days later): 100%
Mortality ([1]; bait 0.01%, 4 Days later): 0%
Mortality ([1]; bait 0.01%, 8 Days later): 40%
abnormal ratio ([1]; bait 0.01%, 8 Days later): 60%
Mortality ([1]; bait 0.01%, 10 Days later): 55%
abnormal ratio ([1]; bait 0.01%, 10 Days later): 45%
Mortality ([1]; bait 0.01%, 14 Days later): 60%
abnormal ratio ([1]; bait 0.01%, 14 Days later): 40%
Mortality ([1]; bait 0.01%, 17 Days later): 100%
Mortality ([1]; bait 0.01%, 23 Days later): 100%
Mortality ([1]; bait 0.05%, 4 Days later): 47%
Mortality ([1]; bait 0.05%, 8 Days later): 47%
abnormal ratio ([1]; bait 0.05%, 8 Days later): 14%
Mortality ([1]; bait 0.05%, 10 Days later): 80%
abnormal ratio ([1]; bait 0.05%, 10 Days later): 7%
Mortality ([1]; bait 0.05%, 14 Days later): 100%
Mortality ([1]; bait 0.05%, 17 Days later): 100%
Mortality ([1]; bait 0.05%, 23 Days later): 100%
Mortality ([1]; bait 0.1%, 4 Days later): 73%
Mortality ([1]; bait 0.1%, 8 Days later): 100%
Mortality ([1]; bait 0.1%, 10 Days later): 100%
Mortality ([1]; bait 0.1%, 14 Days later): 100%
Mortality ([1]; bait 0.1%, 17 Days later): 100%
Mortality ([1]; bait 0.1%, 23 Days later): 100%
Mortality ([2]; gel 0.005%, 2 Days later): 0%
Mortality ([2]; gel 0.005%, 6 Days later): 0%
Mortality ([2]; gel 0.005%, 12 Days later): 10%
Mortality ([2]; gel 0.005%, 23 Days later): 30%
Mortality ([2]; gel 0.005%, 34 Days later): 60%
Mortality ([2]; gel 0.01%, 2 Days later): 0%
Mortality ([2]; gel 0.01%, 6 Days later): 0%
Mortality ([2]; gel 0.01%, 12 Days later): 10%
Mortality ([2]; gel 0.01%, 23 Days later): 60%
Mortality ([2]; gel 0.01%, 34 Days later): 100%
Mortality ([2]; gel 0.05%, 2 Days later): 0%
Mortality ([2]; gel 0.05%, 6 Days later): 0%
Mortality ([2]; gel 0.05%, 12 Days later): 100%
Mortality ([2]; gel 0.05%, 23 Days later): 100%
Mortality ([2]; gel 0.05%, 34 Days later): 100%
Mortality ([2]; gel 0.1%, 2 Days later): 0%
Mortality ([2]; gel 0.1%, 6 Days later): 60%
Mortality ([2]; gel 0.1%, 12 Days later): 100%
Mortality ([2]; gel 0.1%, 23 Days later): 100%
Mortality ([2]; gel 0.1%, 34 Days later): 100%
Mortality [3, 6]: 50 (50) %
abnormal ratio [3, 6]: 50 (50) %
Mortality ([3]; weather resistance operation Negative, 6 Days later): 100%
Mortality [3, 7]: 10%
abnormal ratio [3, 7]: 15%
Mortality ([3]; weather resistance operation Positive (40° C. for 95 days), 6 Days later): 95%
Mortality ([4]; 6 Days later): 37%
Mortality ([4]; 11 Days later): 100%
Mortality ([4]; 15 Days later): 100%
Mortality ([5]; II-2 5 ppm alone): 10%
Mortality ([5]; II-2 10 ppm alone): 20%
